Laboratory results published in patent publication US10849901B2, “Arf6 inhibitors and methods of synthesis and use thereof” (Navigen, Inc., priority 2014, dated 2020).
Where two headings read alike, the source gives them in different places.

Columns and labels:
[1] = test system: oxygen-induced retinopathy; experiment: Oxygen-induced retinopathy (OIR) in mice; type: in vivo; conditions: 5 μg intraocular Days 12 and 15, measured Day 17
Description: In the experiment, mice pups were placed in a 75% oxygen environment from Days 5-12. The mice were returned to a normal oxygen environment on Day 13. The test compounds were administered (5 μg) by intraocular injection on Days 12 and 15, and the area of neovascularization was measured on Day 17. Compound 38 was compared with SU4312 in oxygen-induced retinopathy (OIR) in mice (see FIG. 11). […]

[2] = target: Arf6 (Homo sapiens (Human), UniProt P62330); experiment: Fluorometric assay for Arf6 nucleotide exchange catalyzed by ARNO Sec7 domain (GTP-BODIPY FL); type: biochemical
Chain of Arf6 (P62330 14-175): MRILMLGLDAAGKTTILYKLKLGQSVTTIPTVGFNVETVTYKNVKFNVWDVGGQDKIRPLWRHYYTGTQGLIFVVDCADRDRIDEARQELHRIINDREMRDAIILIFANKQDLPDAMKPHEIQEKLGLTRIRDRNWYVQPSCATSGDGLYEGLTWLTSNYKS
Description: FIGS. 1A-1D: Fluorometric high throughput assay for Arf6 nucleotide exchange catalyzed by ARNO Sec7 domain. FIG. 1A: Principle of the assay. FIG. 1B: SDS-PAGE analysis of N-terminally His-tagged Arf6(14-175) and ARNO(50-255) purified from the E. coli cultures by immobilized metal affinity chromatography. FIG. 1C: Correlation between signal intensity and ARNO concentration. The assay was performed using 50 mM Tris-HCl, pH 7.5, 1 mM MgCl2, 0.01% TX-100, 1% DMSO, 50 nM GTP-BODIPY FL, supplemented with ARNO-Sec7 at indicated concentrations in the absence or in the presence of 0.2 μM Arf6-GDP. Fluorescence intensities were monitored using a Synergy 4 plate reader (BioTek) at the excitation and emission wavelengths of 490 nm and 520 nm, respectively. FIG. 1D: Time course of apparent inhibitory potency of GDP. The assay was performed in automated mode using a Matrix PlateMate liquid handler.
The primary biochemical assay uses a fluorometric assay for monitoring the replacement of bound nucleotide with a fluorogenic GTP derivative bearing a BODIPY FL moiety, allowing for the identification of compounds that can inhibit this exchange (see FIG. 1A). In certain embodiments, the methods disclosed herein may exploit the reduction of intramolecular fluorescence quenching of the modified nucleotide upon its binding to the target protein (see, e.g., McEwen D P, Gee K R, Kang H C, Neubig R R. Fluorescent BODIPY-GTP analogs: real-time measurement of nucleotide binding to G proteins. Anal Biochem. 2001 Apr. 1; 291(1): 109-17).
The fluorometric assay formatted for 96-well microtiter plates has passed quality control based on the following criteria: i) S/B ratio of 4-fold and Z′-factor of 0.61; ii) linear correlation between signal intensity and ARNO concentration (see FIG. 1C); iii) sufficiently reproducible inhibitory effects of the reference inhibitor GDP for assay durations up to at least 1 hour (see FIG. 1D); and iv) lack of apparent fluorescence quenchers among 400 randomly selected compounds. The assay is amenable to automation with a throughput of approximately 5,000 data points per 8 hours.

[3] = test system: collagen-induced arthritis; experiment: Mouse model of collagen-induced arthritis; type: in vivo; conditions: mice, 14 days; Compound 4 10, 30, 60 mg/kg BID; Enbrel 10 mg/kg QD
Description: In the experiment, mice were immunized with collagen on Days 1 and 21, and randomized to treatment groups on or around Day 28, then subject to fourteen days of treatment with a test compound. Vehicle (●), Compound 4 at 10 mg/kg (▴), Compound 4 at 30 mg/kg (▾), Compound 4 at 60 mg/kg (♦), or Enbrel (▪; 10 mg/kg) was given. Compound 4 was given twice daily (BID); Enbrel was given once daily (QD); and vehicle was given twice daily (BID).

[4] = test system: VEGF-induced retinal permeability; experiment: VEGF-induced retinal permeability in mice (Evans blue dye); type: in vivo
Description: (§1) In the experiment, VEGF (50 ng) and either Compound 38 or 65 (500 ng) or NAV-3745 (500 ng) were given to mice in a single intraocular injection. Evans blue dye (EBD) was given via IV approximately 6 hours after the injection, and the retinas were harvested after an additional 2 hours. Retinal permeability was measured on Day 2 after an overnight extraction of EBD in formamide, at OD 620-740 nm.
as §1, with “the test compound” for “either Compound 38 or 65 (500 ng) or NAV-3745 (500 ng)”, “injection. Avastin was given at a dose of 20 μg, Compound 38 at either 50 ng or 500 ng (as noted in FIG. 7), and SU4312 at 5 μg. As with the previous experiment,” for “injection.”

[5] = test system: VEGF-induced retinal permeability; experiment: VEGF-induced retinal permeability in rats (Evans blue dye); type: in vivo; conditions: rat, not told, ip, 60 mg/kg
Description: In the experiment, VEGF (500 ng) and Avastin (200 μg) were given to rats in a single intraocular injection on Day 1. Compound 38 (60 mg/kg) was administered by IP injection 1 hour prior to VEGF on Day 1. Rats were given Evans blue dye (EBD) via IV infusion on Day 2, and the retinas were harvested after an additional 1.5 hours. The retinas were dissected and incubated overnight in formamide. Vascular leak was calculated on Day 3.

[6] = test system: LPS-induced acute lung injury; experiment: LPS-induced acute lung injury in mice (BALF analysis); type: in vivo; conditions: 24 hours after LPS, Compound 38 60 mg/kg, dexamethasone 5 mg/kg
Description: In the experiment, LPS (5 mg/kg) was given by intra-tracheal instillation. Dexamethasone (5 mg/kg) was given as a positive control 2 hours after the LPS. Bronchoalveolar fluid (BALF) was analyzed for cell count and protein 24 hours after the LPS.

[7] = 20 nM Arf6 assay, read-out: IC50 (μM) 20 nM Arf6
[8] = 200 nM Arf6 assay, read-out: IC50 (μM) 200 nM Arf6

Compound	IC50 [2, 7]	further results
O=c1cc(-c2cccc(Oc3ccccc3)c2)[nH]c2c(-c3ccc(Cl)c(Cl)c3)c(C(F)(F)F)nn12 [Compound 4]	0.52 µM	area of neovascularization [1]: reduced the area of neovascularization; IC50 [2, 8]: 0.46 µM; inflammation as measured by the arthritic index [3]: reduced inflammation
SU4312 [reference compound]	–	area of neovascularization [1]: reduced the area of neovascularization; VEGF-induced retinal permeability ([4]; mouse, not told): little effect
Enbrel	–	inflammation as measured by the arthritic index [3]: reduced inflammation
Avastin	–	VEGF-induced retinal permeability ([4]; mouse, not told): reduced VEGF-induced retinal permeability; VEGF-induced retinal permeability [5]: reduced VEGF-induced retinal permeability
COc1ccc(-c2c(Cc3ccccc3)nn3c(=O)cc(C)[nH]c23)cc1 [NAV-3745, reference compound]	–	VEGF-induced retinal permeability ([4]; mice, 500 ng single intraocular injection with VEGF 50 ng (FIG. 6)): no effect
Cc1nn2c(=O)cc(-c3ccc(NC(=O)Cc4ccccc4)cc3)[nH]c2c1-c1ccc(Cl)cc1 [Compound 41]	1.9 µM	–
C[C@@H]1C[C@H]2[C@@H]3CCC4=CC(=O)C=C[C@]4(C)[C@@]3(F)[C@@H](O)C[C@]2(C)[C@@]1(O)C(=O)CO [dexamethasone, Dexamethasone, reference compound]	–	number of cells in the lung fluid (BALF) [6]: reduced the number of cells; protein concentration in the lung fluid (BALF) [6]: reduced
O=c1cc(-c2ccc([N+](=O)[O-])cc2)[nH]c2c(-c3ccc(Cl)c(Cl)c3)c(Cc3ccccc3)nn12 [Compound 23]	1.2 µM	–
O=c1cc(-c2ccc([N+](=O)[O-])cc2)[nH]c2c(-c3ccc(Cl)c(Cl)c3)c(C3CC3)nn12 [Compound 22]	1.2 µM	–
O=C(Nc1ccc(C2=Nc3c(-c4ccc(Cl)cc4)c(C(F)(F)F)nn3C(=O)C2)cc1)c1ccccc1 [Compound 3]	0.5 µM	–
O=c1cc(-c2ccc(-c3ccncc3)cc2)[nH]c2c(-c3ccc(Cl)cc3)c(C(F)(F)F)nn12 [Compound 47]	2.4 µM	–

Further lines, with some results ahead:

IC50 [2, 7]	Compound	further results
5.2 µM	Nc1ccc(-c2cc(=O)n3nc(C(F)(F)F)c(-c4ccc(Cl)cc4)c3[nH]2)cc1 [Compound 78]	–
11 µM	Cc1c(Cc2ccccc2)nn2c(=O)cc(-c3ccc([N+](=O)[O-])cc3)[nH]c12 [Compound 98]	–
3.4 µM	O=c1nc(/C=C/c2ccc(-c3cc(Cl)cc(Cl)c3)o2)cc(C(F)(F)F)[nH]1 [Compound 120]	–
20 µM	O=C(Nc1cccc(-c2cc(=O)n3nc(C(F)(F)F)c(-c4ccc(Cl)cc4)c3[nH]2)c1)c1ccccc1 [Compound 111]	–
6.6 µM	CC(C)(C)c1nn2c(=O)cc(-c3cccc(C(N)=O)c3)[nH]c2c1-c1ccc(Cl)cc1 [Compound 85]	–
5.1 µM	Nc1scc2c(-c3nnc(Nc4ccccc4)s3)nn(-c3ccc([N+](=O)[O-])cc3)c(=O)c12 [Compound 123]	–
2.5 µM	O=c1c(Cl)c(-c2ccccc2)[nH]c2c(-c3ccc(Cl)cc3)c(Cc3ccccc3)nn12 [Compound 49]	–
16 µM	O=C(O)c1ccc(-c2cc(=O)n3nc(C4CC4)c(-c4ccc(Cl)cc4)c3[nH]2)cc1 [Compound 107]	–
16 µM	Fc1ccc(C2CC(c3cccs3)=NN2c2nc(-c3ccc(-c4ccccc4)cc3)cs2)cc1 (centres unmarked) [Compound 136]	–
14 µM	O=c1cc(Cc2cccnc2)[nH]c2c(-c3ccc(Cl)cc3)c(C(F)(F)F)nn12 [Compound 102]	IC50 [2, 8]: 17 µM
4 µM	Cc1nc2c(=O)[nH]c(-c3ccc([N+](=O)[O-])cc3)nn2c1-c1ccc(Cl)cc1 [Compound 69]	–
